From patent US4452741A, “A-39183 Antibiotics and process for production thereof” (Eli Lilly and Company, priority 1983, dated 1984)
Values after ≈ are worked out from the molar mass of the structure shown. Where two headings read alike, the source gives them in different places.

What was measured:
[1] = system: Staphylococcus aureus 3055; assay: agar-dilution MIC; type: cell-based
From the text: (§1) The agar-dilution procedure described by the International Collaborative Study (ICS) group was used to determine MIC values.

[2] = system: Streptococcus faecalis X66; assay: agar-dilution MIC; type: cell-based; conditions: Enterococcus faecalis
[3] = system: Actinomyces israelii W855; assay: MIC, anaerobic bacteria; type: cell-based
[4] = system: Clostridium perfringens 81; assay: microbe, parasite or virus in culture; type: cell-based
[5] = system: Bacteroides thetaiotaomicron 1438; assay: MIC, anaerobic bacteria; type: cell-based
From the text: as §1

[6] = system: Clostridium septicum 1128; assay: MIC, anaerobic bacteria; type: cell-based
From the text: as §1

[7] = system: Eubacterium aerofaciens 1235; assay: MIC, anaerobic bacteria; type: cell-based; conditions: Collinsella aerofaciens
[8] = system: Peptococcus asaccharolyticus 1302; assay: MIC, anaerobic bacteria; type: cell-based; conditions: Peptoniphilus asaccharolyticus
Peptococcus prevoti 1281 = assay: MIC, anaerobic bacteria; type: cell-based
[9] = system: Peptostreptococcus anaerobius 1428; assay: MIC, anaerobic bacteria; type: cell-based
[10] = system: Peptostreptococcus intermedius 1264; assay: MIC, anaerobic bacteria; type: cell-based
[11] = system: Propionibacterium acnes 79; assay: MIC, anaerobic bacteria; type: cell-based; conditions: Cutibacterium acnes
Bacteroides fragilis 111 = assay: MIC, anaerobic bacteria; type: cell-based
[12] = system: Bacteroides fragilis 1877; assay: MIC, anaerobic bacteria; type: cell-based
[13] = system: Bacteroides fragilis 1936B; assay: MIC, anaerobic bacteria; type: cell-based
[14] = system: Bacteroides melaninogenicus 1856/28; assay: MIC, anaerobic bacteria; type: cell-based; conditions: Prevotella intermedia
[15] = system: Bacteroides melaninogenicus 2736; assay: MIC, anaerobic bacteria; type: cell-based
[16] = system: Bacteroides vulgatis 1211; assay: MIC, anaerobic bacteria; type: cell-based
[17] = system: Bacteroides corrodens 1874; assay: MIC, anaerobic bacteria; type: cell-based
[18] = system: Fusobacterium symbiosum 1470; assay: MIC, anaerobic bacteria; type: cell-based
[19] = system: Fusobacterium necrophorum 6054A; assay: MIC, anaerobic bacteria; type: cell-based
electrometric titration = type: physicochemical; conditions: 66% dimethylformamide in water
Method: Antibiotic A-39183 factor A is a yellow, crystalline solid, having a molecular weight of 598.58, as determined by mass spectrometry, and an approximate elemental analysis as follows: 67.95% carbon, 5.20% hydrogen, and 26.79% oxygen. […] A-39183 factor A has the following specific rotation: [α]D^25 +18.9° (c 9.52, trifluoroethanol).
Antibiotic A-39183 factor b is a red, crystalline solid having a molecular weight of 580, as determined by mass spectrometry, and an approximate elemental analysis as follows: 70.56% carbon, 4.97% hydrogen, and 24.57% oxygen. […] A-39183 factor B has the following specific rotation: [α]D^25 +576.9° (c 8.85, trifluoroethanol).

solubility = type: physicochemical; conditions: organic solvents
[20] = system: Staphylococcus aureus 3074; assay: agar-dilution MIC; type: cell-based; conditions: agar-dilution method, benzylpenicillin-resistant
[21] = system: Staphylococcus aureus 3055; assay: disc-plate zone of inhibition; type: cell-based; conditions: benzylpenicillin-susceptible, 6 mm discs, read-out: Zone Diameter
Method: (§2) Agar plates, inoculated with the test organism, were used; 6 mm. discs (0.02 ml. capacity) were saturated from log 2 dilutions of the antibiotic solution. Disc content was 1/5 or 1/50 of the concentration of the solution used, i.e., disc content of […] 30 μg. was obtained from a solution of 1500 μg./ml. concentration.

[22] = system: Staphylococcus aureus 3074; assay: disc-plate zone of inhibition; type: cell-based; conditions: benzylpenicillin-resistant, 6 mm discs, read-out: Zone Diameter
Method: as §2

[23] = system: Staphylococcus aureus 3130; assay: disc-plate zone of inhibition; type: cell-based; conditions: benzylpenicillin-resistant, methicillin-resistant, 6 mm discs, read-out: Zone Diameter
Method: as §2

[24] = system: Streptococcus pneumoniae Park I; assay: disc-plate zone of inhibition; type: cell-based; conditions: 6 mm discs, read-out: Zone Diameter
Method: as §2

[25] = system: Streptococcus pyogenes C203; assay: disc-plate zone of inhibition; type: cell-based; conditions: 6 mm discs, read-out: Zone Diameter
Method: as §2

[26] = system: Streptococcus sp. (Group D) 9960; assay: disc-plate zone of inhibition; type: cell-based; conditions: 6 mm discs, read-out: Zone Diameter
Method: as §2

Bacteroides fragilis 103 = assay: MIC, anaerobic bacteria; type: cell-based
Bacteroides fragilis 104 = assay: MIC, anaerobic bacteria; type: cell-based
Bacteroides fragilis 106 = assay: MIC, anaerobic bacteria; type: cell-based
Bacteroides fragilis 107 = assay: MIC, anaerobic bacteria; type: cell-based
Bacteroides fragilis 108 = assay: MIC, anaerobic bacteria; type: cell-based
Bacteroides fragilis 110 = assay: MIC, anaerobic bacteria; type: cell-based
Bacteroides fragilis 112 = assay: MIC, anaerobic bacteria; type: cell-based
Bacteroides fragilis 113 = assay: MIC, anaerobic bacteria; type: cell-based
[27] = system: Bacteroides fragilis 1451; assay: MIC, anaerobic bacteria; type: cell-based
[28] = system: Bacteroides fragilis 1470; assay: MIC, anaerobic bacteria; type: cell-based
Bacteroides fragilis 2 = assay: MIC, anaerobic bacteria; type: cell-based
Bacteroides fragilis 9 = assay: MIC, anaerobic bacteria; type: cell-based
Bacteroides fragilis 62 = assay: MIC, anaerobic bacteria; type: cell-based
[29] = system: Bacteroides vulgatis 1563; assay: MIC, anaerobic bacteria; type: cell-based
[30] = system: Bacteroides thetaiotaomicron 1900A; assay: MIC, anaerobic bacteria; type: cell-based
[31] = Bacteroides thetaiotaomicron, 1438, Bacteroides thetaiotaomicron 1438, first listing, read-out: MIC
[32] = Bacteroides fragilis, 111, Bacteroides fragilis 111, first listing
[33] = Bacteroides fragilis, 1877, Bacteroides fragilis 1877, first listing
[34] = Eikenella corrodens, 1874, Bacteroides corrodens 1874, first listing

CC(=O)C1c2c(c(O)c3c(O)cccc3c2-c2c3c(c(O)c4c(O)cccc24)C(=O)CC(C)(O)C3C(C)=O)C(=O)CC1(C)O (centres unmarked) [A-39183 factor A]
MIC ([1]; agar-dilution method, benzylpenicillin-susceptible, read-out: MIC): 32 µg/mL (≈ 53.5 µM) | MIC ([2]; agar-dilution method, read-out: MIC): 32 µg/mL (≈ 53.5 µM) | MIC [3]: ≤ 0.5 µg/mL | MIC [4]: 32 µg/mL (≈ 53.5 µM) | MIC [5, 31]: 16 µg/mL (≈ 26.7 µM) | MIC [6]: 16 µg/mL (≈ 26.7 µM) | MIC [7]: 32 µg/mL (≈ 53.5 µM) | MIC [8]: 64 µg/mL (≈ 107 µM) | MIC (Peptococcus prevoti 1281): 32 µg/mL (≈ 53.5 µM) | MIC [9]: 64 µg/mL (≈ 107 µM) | MIC [10]: 32 µg/mL (≈ 53.5 µM) | MIC [11]: 32 µg/mL (≈ 53.5 µM) | MIC (Bacteroides fragilis 111; [32]): 32 µg/mL (≈ 53.5 µM) | MIC [12, 33]: 32 µg/mL (≈ 53.5 µM) | MIC [13]: 32 µg/mL (≈ 53.5 µM) | MIC [14]: > 128 µg/mL | MIC [15]: 16 µg/mL (≈ 26.7 µM) | MIC [16]: 32 µg/mL (≈ 53.5 µM) | MIC [17, 34]: 32 µg/mL (≈ 53.5 µM) | MIC [18]: 64 µg/mL (≈ 107 µM) | MIC [19]: 16 µg/mL (≈ 26.7 µM) | pKa (electrometric titration; pH 4.81, 66% dimethylformamide in water, initial pH 4.81, read-out: pKa (first titratable group)): ~6.75 | pKa (electrometric titration; pH 4.81, 66% dimethylformamide in water, initial pH 4.81, read-out: pKa (second titratable group)): ~8.43 | solubility (soluble) (solubility): soluble in acetone, ethyl acetate, chloroform, dimethylformamide, dimethyl sulfoxide, and trifluoroethanol

CC(=O)c1c(C)cc(O)c2c(O)c3c(O)cccc3c(-c3c4c(c(O)c5c(O)cccc35)C(=O)CC(C)(O)C4C(C)=O)c12 (centres unmarked) [A-39183 factor B]
MIC [1]: 0.5 µg/mL (≈ 0.861 µM) | MIC [2]: 4 µg/mL (≈ 6.89 µM) | MIC [20]: 4 µg/mL (≈ 6.89 µM) | zone of inhibition at 30 µg/disc ([21]; 30 μg/disc): 0 mm | zone of inhibition at 300 µg/disc ([21]; 300 μg/disc): 0 mm | zone of inhibition at 30 µg/disc ([22]; 30 μg/disc): 14.8 mm | zone of inhibition at 300 µg/disc ([22]; 300 μg/disc): 15.8 mm | zone of inhibition at 30 µg/disc ([23]; 30 μg/disc): 13.4 mm | zone of inhibition at 300 µg/disc ([23]; 300 μg/disc): 14 mm | zone of inhibition at 30 µg/disc ([24]; 30 μg/disc): 0 mm | zone of inhibition at 300 µg/disc ([24]; 300 μg/disc): 9.1 mm | zone of inhibition at 30 µg/disc ([25]; 30 μg/disc): 8 mm | zone of inhibition at 300 µg/disc ([25]; 300 μg/disc): 10 mm | zone of inhibition at 30 µg/disc ([26]; 30 μg/disc): 0 mm | zone of inhibition at 300 µg/disc ([26]; 300 μg/disc): 9.1 mm | MIC [3]: ≤ 0.5 µg/mL | MIC [4]: 8 µg/mL (≈ 13.8 µM) | MIC [5, 31]: 16 µg/mL (≈ 27.6 µM) | MIC ([5]; Bacteroides thetaiotaomicron, 1438, Bacteroides thetaiotaomicron 1438, second listing): 4 µg/mL (≈ 6.89 µM) | MIC [6]: 2 µg/mL (≈ 3.44 µM) | MIC [7]: 8 µg/mL (≈ 13.8 µM) | MIC [8]: 32 µg/mL (≈ 55.1 µM) | MIC (Peptococcus prevoti 1281): 8 µg/mL (≈ 13.8 µM) | MIC [9]: 8 µg/mL (≈ 13.8 µM) | MIC [10]: 2 µg/mL (≈ 3.44 µM) | MIC [11]: 2 µg/mL (≈ 3.44 µM) | MIC (Bacteroides fragilis 111; [32]): ≤ 0.5 µg/mL | MIC (Bacteroides fragilis 111; Bacteroides fragilis, 111, Bacteroides fragilis 111, second listing): 4 µg/mL (≈ 6.89 µM) | MIC [12, 33]: 1 µg/mL (≈ 1.72 µM) | MIC ([12]; Bacteroides fragilis, 1877, Bacteroides fragilis 1877, second listing): 4 µg/mL (≈ 6.89 µM) | MIC [13]: 2 µg/mL (≈ 3.44 µM) | MIC [14]: > 128 µg/mL | MIC [15]: 4 µg/mL (≈ 6.89 µM) | MIC [16]: 2 µg/mL (≈ 3.44 µM) | MIC [17, 34]: 1 µg/mL (≈ 1.72 µM) | MIC ([17]; Eikenella corrodens, 1874, Bacteroides corrodens 1874, second listing): 4 µg/mL (≈ 6.89 µM) | MIC [18]: 8 µg/mL (≈ 13.8 µM) | MIC [19]: ≤ 0.5 µg/mL | MIC (Bacteroides fragilis 103): 4 µg/mL (≈ 6.89 µM) | MIC (Bacteroides fragilis 104): 4 µg/mL (≈ 6.89 µM) | MIC (Bacteroides fragilis 106): 4 µg/mL (≈ 6.89 µM) | MIC (Bacteroides fragilis 107): 4 µg/mL (≈ 6.89 µM) | MIC (Bacteroides fragilis 108): 4 µg/mL (≈ 6.89 µM) | MIC (Bacteroides fragilis 110): 4 µg/mL (≈ 6.89 µM) | MIC (Bacteroides fragilis 112): 4 µg/mL (≈ 6.89 µM) | MIC (Bacteroides fragilis 113): 4 µg/mL (≈ 6.89 µM) | MIC [27]: 4 µg/mL (≈ 6.89 µM) | MIC [28]: 4 µg/mL (≈ 6.89 µM) | MIC (Bacteroides fragilis 2): 2 µg/mL (≈ 3.44 µM) | MIC (Bacteroides fragilis 9): 4 µg/mL (≈ 6.89 µM) | MIC (Bacteroides fragilis 62): 1 µg/mL (≈ 1.72 µM) | MIC [29]: 8 µg/mL (≈ 13.8 µM) | MIC [30]: 16 µg/mL (≈ 27.6 µM) | pKa (electrometric titration; pH 4.03, 66% dimethylformamide in water, initial pH 4.03, read-out: pKa (first titratable group)): ~6.68 | pKa (electrometric titration; pH 4.03, 66% dimethylformamide in water, initial pH 4.03, read-out: pKa (second titratable group)): ~8.42 | solubility (soluble) (solubility): soluble in the same solvents as factor A
